According to US12486284B2, “Ubiquitin-specific protease inhibitor and preparation method therefor and use thereof” (CHASER THERAPEUTICS, INC., priority 2019, dated 2025):
Where two headings read alike, the source gives them in different places.

Tests used:
[1] = target: T1, USP28 (Homo sapiens, UniProt Q96RU2); test: USP28 activity measured using ubiquitin-rhodamine 110 method; type: biochemical; conditions: for IC50: purified USP28 4 nM, ubiquitin-rhodamine 110 125 nM, 30 min preincubation; for IC50(F)/IC50(E) USP28: ratio of IC50 of related 3-NH2 compound (F) to IC50 of 3-NHMe compound disclosed herein (E)
T1 construct: purchased R&D Systems
T1 sequence (Q96RU2 1-1077): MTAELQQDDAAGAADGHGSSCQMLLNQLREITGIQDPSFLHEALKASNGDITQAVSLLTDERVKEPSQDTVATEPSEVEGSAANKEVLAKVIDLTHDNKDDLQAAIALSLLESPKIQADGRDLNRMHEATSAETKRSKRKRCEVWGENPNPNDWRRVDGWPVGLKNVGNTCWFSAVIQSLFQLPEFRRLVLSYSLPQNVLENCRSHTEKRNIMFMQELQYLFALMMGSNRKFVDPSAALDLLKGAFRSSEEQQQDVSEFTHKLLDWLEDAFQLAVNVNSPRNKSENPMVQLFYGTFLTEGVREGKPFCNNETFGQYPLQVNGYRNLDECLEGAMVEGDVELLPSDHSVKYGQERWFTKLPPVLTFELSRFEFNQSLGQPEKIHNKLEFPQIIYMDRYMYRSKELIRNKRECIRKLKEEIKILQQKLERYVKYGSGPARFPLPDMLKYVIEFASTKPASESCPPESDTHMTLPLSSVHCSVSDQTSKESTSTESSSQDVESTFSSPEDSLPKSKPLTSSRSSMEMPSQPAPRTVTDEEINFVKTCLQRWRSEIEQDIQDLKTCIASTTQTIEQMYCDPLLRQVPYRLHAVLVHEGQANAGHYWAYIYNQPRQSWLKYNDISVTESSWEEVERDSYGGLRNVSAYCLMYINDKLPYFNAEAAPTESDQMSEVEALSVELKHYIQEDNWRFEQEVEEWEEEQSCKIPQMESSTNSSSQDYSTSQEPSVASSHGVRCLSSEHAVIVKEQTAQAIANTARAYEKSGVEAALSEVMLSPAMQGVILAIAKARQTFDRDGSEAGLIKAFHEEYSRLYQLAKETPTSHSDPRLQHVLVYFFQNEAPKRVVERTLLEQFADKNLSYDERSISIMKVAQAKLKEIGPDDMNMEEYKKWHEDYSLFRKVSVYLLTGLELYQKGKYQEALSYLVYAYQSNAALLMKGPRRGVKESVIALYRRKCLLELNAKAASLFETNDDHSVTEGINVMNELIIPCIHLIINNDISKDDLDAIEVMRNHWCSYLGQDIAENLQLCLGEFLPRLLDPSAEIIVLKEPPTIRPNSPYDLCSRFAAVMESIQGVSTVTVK
Outline: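 Purified USP28 (4 nM final) preincubated with compounds 30 min at room temperature in Tris-HCl pH 8.0 buffer with CaCl2, BME, Prionix and Triton X-100 (DMSO ≤0.5%). Ubiquitin-rhodamine 110 added to 125 nM; fluorescence (ex 485/em 535 nm) read immediately, inhibition versus DMSO control used to calculate IC50.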

[2] = target: T2, USP25 (Homo sapiens, UniProt Q9UHP3); test: USP25 activity measured using ubiquitin-rhodamine 110 method; type: biochemical; conditions: for IC50: purified USP25 15 nM, ubiquitin-rhodamine 110 125 nM, 30 min preincubation; for IC50(F)/IC50(E) USP25: ratio of IC50 of related 3-NH2 compound (F) to IC50 of 3-NHMe compound disclosed herein (E)
T2 construct: purchased R&D Systems
T2 sequence (Q9UHP3 1-1055): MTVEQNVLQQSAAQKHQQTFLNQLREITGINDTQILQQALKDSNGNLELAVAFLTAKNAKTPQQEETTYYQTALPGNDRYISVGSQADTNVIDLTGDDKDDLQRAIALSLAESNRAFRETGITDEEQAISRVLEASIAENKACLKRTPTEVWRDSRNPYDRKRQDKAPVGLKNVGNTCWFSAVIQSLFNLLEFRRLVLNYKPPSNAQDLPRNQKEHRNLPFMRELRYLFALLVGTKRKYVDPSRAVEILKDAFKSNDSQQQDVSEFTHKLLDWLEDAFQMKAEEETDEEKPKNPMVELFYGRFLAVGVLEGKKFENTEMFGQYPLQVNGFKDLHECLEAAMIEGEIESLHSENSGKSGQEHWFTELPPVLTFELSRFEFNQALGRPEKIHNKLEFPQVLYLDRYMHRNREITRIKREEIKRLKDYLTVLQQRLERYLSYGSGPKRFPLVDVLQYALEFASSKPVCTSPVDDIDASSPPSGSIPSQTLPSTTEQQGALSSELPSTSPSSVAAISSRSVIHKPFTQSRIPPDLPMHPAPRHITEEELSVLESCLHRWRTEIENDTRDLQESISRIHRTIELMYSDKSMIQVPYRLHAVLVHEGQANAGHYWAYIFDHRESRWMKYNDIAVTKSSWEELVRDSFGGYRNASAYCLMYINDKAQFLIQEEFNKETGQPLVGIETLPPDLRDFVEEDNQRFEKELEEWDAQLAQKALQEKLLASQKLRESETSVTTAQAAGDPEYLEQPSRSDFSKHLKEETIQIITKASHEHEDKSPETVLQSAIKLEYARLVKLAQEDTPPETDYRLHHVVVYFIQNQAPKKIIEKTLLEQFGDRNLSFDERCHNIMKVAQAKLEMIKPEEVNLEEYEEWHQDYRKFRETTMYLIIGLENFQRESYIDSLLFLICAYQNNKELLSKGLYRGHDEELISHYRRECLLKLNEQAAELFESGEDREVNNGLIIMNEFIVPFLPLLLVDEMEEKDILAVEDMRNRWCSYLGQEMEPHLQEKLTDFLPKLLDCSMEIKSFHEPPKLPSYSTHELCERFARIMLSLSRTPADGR
Outline: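 Compound preincubated 30 min at room temperature with USP25 (15 nM final) in 20 mM Tris-HCl pH 8.0, 2 mM CaCl2, 3 mM BME, 0.01% Prionix, 0.01% Triton X-100, ≤0.5% DMSO. Ubiquitin-rhodamine 110 (125 nM) then added; fluorescence (ex 485/em 535 nm) read immediately. IC50 from % inhibition across concentrations.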

[3] = read-out: Inhibitory activity against USP28 (IC50)
[4] = read-out: Inhibitory activity against USP25 (IC50)
[5] = Inhibitory activity against USP28 (IC50)
[6] = Inhibitory activity against USP25 (IC50)

| Structure (SMILES) | IC50 [1, 3] [nM] | IC50 [2, 4] [nM] | IC50 [1, 5] [nM] | IC50(F)/IC50(E) USP28 [1] | IC50 [2, 6] [nM] | IC50(F)/IC50(E) USP25 [2] |
| --- | --- | --- | --- | --- | --- | --- |
| CNc1c(C(=O)NCCc2ccc(N3C[C@H]4CC[C@@H](C3)N4)cc2)sc2nc(Cl)ccc12 [Compound I-82] | 100 to 1000 | 100 to 1000 | – | – | – | – |
| CNc1c(C(=O)N[C@@H]2Cc3ccc(N4CC5CCC(C4)N5)cc3C2)sc2nc(C)ccc12 [Compound I-83] | 100 to 1000 | 5000 to 10000 | – | – | – | – |
| CNc1c(C(=O)N[C@H]2Cc3ccc(N4CC5CCC(C4)N5)cc3C2)sc2nc(C)ccc12 [Compound I-84] | 1000 to 5000 | > 10000 | – | – | – | – |
| CNc1c(C(=O)N[C@H]2COc3cc(N4CC5CCC(C4)N5)ccc3C2)sc2nc(C)ccc12 [Compound I-85] | – | – | < 100 | 8.8 | < 100 | >8 |
| CNc1c(C(=O)NC2COc3cc(N4CC5CCC(C4)N5)ccc3C2)sc2nc(C)ccc12 (stereo not shown) [Compound I-86] | 100 to 1000 | 1000 to 5000 | – | – | – | – |
| CNc1c(C(=O)NC2CCc3cc(N4CC5CCC(C4)N5)ccc3C2)sc2nc(C)ccc12 (stereo not shown) [Compound I-89] | 1000 to 5000 | 5000 to 10000 | – | – | – | – |
| CNc1c(C(=O)N[C@H]2CCc3cc(N4CC5CCC(C4)N5)ccc3C2)sc2nc(C)ccc12 [Compound I-90] | – | 100 to 1000 | < 100 | 5.5 | – | >6 |
| CCc1ccc2c(NC)c(C(=O)N[C@H]3COc4cc(N5CC6CCC(C5)N6)ccc4C3)sc2n1 [Compound I-91] | – | – | < 100 | – | < 100 | – |
| CNc1c(C(=O)NCC(C)(C)c2ccc(N3CC4CCC(C3)N4)cc2F)sc2nc(C)ccc12 [Compound I-92] | 1000 to 5000 | > 10000 | – | – | – | – |
| CNc1c(C(=O)NCCc2ccc(N3C[C@H]4CC[C@@H](C3)N4)cc2)sc2nc(N)ccc12 [Compound I-93, N-4-(3,8-diazabicyclo[3.2.1]octan-3-yl)phenethyl-6-amino-3-methylaminothiophene[2,3-b]pyridine-2-carboxamide] | 100 to 1000 | 100 to 1000 | – | – | – | – |
| CNc1ccc2c(NC)c(C(=O)NCCc3ccc(N4C[C@H]5CC[C@@H](C4)N5)cc3)sc2n1 [Compound I-94] | 100 to 1000 | > 10000 | – | – | – | – |
| CNc1c(C(=O)NCCc2ccc(N3C[C@H]4CC[C@@H](C3)N4)cc2)sc2nc(N)cc(C(F)F)c12 [Compound I-95] | – | – | < 100 | – | < 100 | – |
